How the values were obtained:
E. coli strain TG1 = assay: MIC of purine base analogues on M9 glucose minimal agar plates, parental strain; format: cell-based; conditions: Escherichia coli, 10^5 to 10^6 cells spotted, growth after 44 h at 37° C.
Protocol: (§1) The minimal inhibitory concentrations (MIC) of purine base analogues for the strain TG1::PnlpD-yeaS and the parental strain TG1 were determined on M9 glucose minimal agar plates containing graded concentrations of inhibitors. The plates were spotted with 10^5 to 10^6 cells from an overnight culture grown in a minimal medium. The growth was estimated after 44 h incubation at 37° C.

[1] = system: E. coli strain TG1::PnlpD-yeaS; assay: MIC of purine base analogues on M9 glucose minimal agar plates, yeaS-overexpressing strain; format: cell-based; conditions: Escherichia coli, 44 h, read-out: MIC for E. coli strain TG1::PnlpD-yeaS
Protocol: as §1

Structure (SMILES) | MIC (E. coli strain TG1) [µg/mL] | MIC [1] [µg/mL]
Nc1nc(N)c2[nH]cnc2n1 [2,6-diaminopurine] | 200 | 600
Nc1ncnc2nn[nH]c12 [8-azaadenine] | 100 | 250
Nc1nc2nc[nH]c2c(=S)[nH]1 [6-thioguanine] | 30 | 450
Sc1ncnc2nc[nH]c12 [6-mercaptopurine] | 50 | 150

Source: patent publication US8034767B2, “Method for producing purine nucleosides and nucleotides by fermentation using a bacterium belonging to the genus Escherichia or Bacillus” (priority 2006, dated 2011)
